One test deals with Histone deacetylase 1 (Homo sapiens, UniProt Q13547). Nature of the test: Inhibition of human recombinant HDAC1 pre-incubated for 30 mins before substrate addition and measured after 30 mins by fluorescence based assay.
For the next test, the target named is Histone deacetylase 2 (Homo sapiens, UniProt Q92769). Kind of test: Inhibition of human recombinant HDAC2 pre-incubated for 30 mins before substrate addition and measured after 30 mins by fluorescence based assay.
Test [1] deals with Class 1 histone deacetylase (Homo sapiens, UniProt Q13547+O15379+Q92769+Q9BY41). Kind of test: Inhibition Class 1 histone deacetylase in human HeLa nuclear extracts using Fluor-de- Lys-green substrate by fluorescence assay. The test is classed as cell-free.

Structures are written as SMILES.

Sequence of Histone deacetylase 1 (Q13547 whole entry): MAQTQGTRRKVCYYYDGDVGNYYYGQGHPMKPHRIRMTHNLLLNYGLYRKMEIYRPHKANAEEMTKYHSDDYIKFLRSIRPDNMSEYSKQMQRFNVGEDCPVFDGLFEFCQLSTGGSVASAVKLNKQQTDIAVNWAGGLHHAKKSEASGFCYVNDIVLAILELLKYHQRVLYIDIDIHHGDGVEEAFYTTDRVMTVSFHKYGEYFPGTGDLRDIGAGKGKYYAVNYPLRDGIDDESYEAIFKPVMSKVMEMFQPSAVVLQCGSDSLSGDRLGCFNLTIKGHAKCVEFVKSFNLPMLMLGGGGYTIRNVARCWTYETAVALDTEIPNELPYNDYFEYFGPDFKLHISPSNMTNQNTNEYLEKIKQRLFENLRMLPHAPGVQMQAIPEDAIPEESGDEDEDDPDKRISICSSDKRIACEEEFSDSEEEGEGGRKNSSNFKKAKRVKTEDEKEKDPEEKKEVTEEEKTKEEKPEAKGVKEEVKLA
Sequence of Histone deacetylase 2 (Q92769 whole entry): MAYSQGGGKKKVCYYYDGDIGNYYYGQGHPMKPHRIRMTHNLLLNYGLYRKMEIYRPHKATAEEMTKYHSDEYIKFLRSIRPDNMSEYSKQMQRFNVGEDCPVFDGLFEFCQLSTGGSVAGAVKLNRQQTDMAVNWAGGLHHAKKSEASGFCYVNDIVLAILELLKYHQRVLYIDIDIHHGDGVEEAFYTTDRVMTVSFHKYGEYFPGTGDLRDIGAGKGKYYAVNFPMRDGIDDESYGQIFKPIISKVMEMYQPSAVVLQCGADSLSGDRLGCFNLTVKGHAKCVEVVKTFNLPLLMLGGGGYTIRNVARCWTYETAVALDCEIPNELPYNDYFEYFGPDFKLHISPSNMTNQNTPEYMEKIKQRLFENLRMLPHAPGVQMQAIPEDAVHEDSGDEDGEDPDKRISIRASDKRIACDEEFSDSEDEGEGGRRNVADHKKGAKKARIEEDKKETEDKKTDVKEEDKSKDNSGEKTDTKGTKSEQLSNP

As for `COc1cccc(OC)c1CNCc1ccc(/C=C/C(=O)NO)cc1`, the IC50 – broadly, the point on the concentration scale where inhibition reaches its midpoint – at Histone deacetylase 1 stood at 636 nM; on Histone deacetylase 2, 1080 nM; in test [1], 235 nM.

Turning to `COc1ccc(OC)c(CNCc2ccc(/C=C/C(=O)NO)cc2)c1`, the IC50 on Histone deacetylase 1 is 620 nM; at Histone deacetylase 2, 1750 nM; in test [1], 292 nM.

As for `COc1ccccc1CNCc1ccc(/C=C/C(=O)NO)cc1`, the figures for the half-maximal inhibitory concentration (IC50) (on Histone deacetylase 1; on Histone deacetylase 2; in test [1]) were 610 nM, 1490 nM and 278 nM, respectively.

Regarding `COc1ccc(CNCc2ccc(/C=C/C(=O)NO)cc2)c(OC)c1`, the values for the IC50 (at Histone deacetylase 1; on Histone deacetylase 2; in test [1]) were 449 nM, 994 nM and 258 nM, respectively.

Turning to `COc1ccc(CNCc2ccc(/C=C/C(=O)NO)cc2)cc1OC`, the results for the IC50 (at Histone deacetylase 1; on Histone deacetylase 2; in test [1]) were 1260 nM, 1890 nM and 371 nM, respectively.

`COc1ccc(CNCc2ccc(/C=C/C(=O)NO)cc2)cc1`: the IC50 on Histone deacetylase 1 amounted to 381 nM; on Histone deacetylase 2 it was 926 nM; in test [1], 195 nM.

`COc1cc(CNCc2ccc(/C=C/C(=O)NO)cc2)cc(OC)c1`: the IC50 at Histone deacetylase 1 amounted to 837 nM; at Histone deacetylase 2, 1270 nM; in test [1] it was 415 nM.

On to `COc1cccc(CNCc2ccc(/C=C/C(=O)NO)cc2)c1OC`, for which the results for the IC50 (at Histone deacetylase 1; at Histone deacetylase 2; in test [1]) were 602 nM, 950 nM and 296 nM, respectively.

`COc1cccc(CNCc2ccc(/C=C/C(=O)NO)cc2)c1`: the figures for the IC50 (at Histone deacetylase 1; on Histone deacetylase 2; in test [1]) were 463 nM, 819 nM and 420 nM, respectively.

For `O=C(/C=C/c1ccc(CNCc2ccccc2)cc1)NO`, the IC50 in test [1] turned out to be 370 nM.

Source of the values: ChEMBL document CHEMBL4385666, “Exploring hydroxamic acid inhibitors of HDAC1 and HDAC2 using small molecule tools and molecular or homology modelling” (Bioorg Med Chem Lett, 2019).
